From publication PMC6116245 (Viruses, 2018)
Values after ≈ are worked out from the molar mass of the structure shown. Values joined by “and” are separate entries in the source; they are usually repeats but may differ in a detail not shown here. Identical values can stand only once. “Also recorded” adds a separate entry of the source. Like-named read-outs stand apart in the source and are kept apart here.

How the values were obtained:
human norovirus replicon = test system: human norovirus replicon; set-up: method as in ref 47, 57 = [47]; conditions: cell culture-based assays; cited from earlier work
[1] = Cytotoxicity study, CellTitre-Blue viability assay; conditions: cat
[2] = test system: human GI.1 norovirus replicon; set-up: method as in ref 59 = [59]; conditions: cell culture; cited from earlier work
murine norovirus [3] = test system: murine norovirus; set-up: method as in ref 47, 57 = [47]; conditions: cell culture-based assays; cited from earlier work
[4] = test system: FCV RNA in infected CRFK cells; assay: FCV genome reduction assay by RT-qPCR; assay type: cell-based, Feline calicivirus; conditions: 24 h, MOI 0.0005
FCV strain F-9 = assay: FCV plaque reduction assay in CRFK cells; conditions: for Therapeutic index (TI = CC50/EC50): CRFK CC50 / FCV plaque reduction EC50; for Antiviral effect against FCV in cell culture (in words): plaque reduction assay
human norovirus = test system: human norovirus; set-up: method as in ref 60 = [60]; conditions: B-cell culture system; cited from earlier work
[5] = test system: Crandell Rees Feline Kidney (CRFK) cells; assay: Cytotoxicity study, CellTitre-Blue viability assay; conditions: read-out: Cell Viability CC50; CRFK cells, 48 h, CellTitre-Blue
[6] = biological target: FCV RdRp (recombinant FCV Pro-Pol) (Feline calicivirus, UniProt Q66914); assay: Fluorescent RdRp assay (PicoGreen, poly(C) template); conditions: for RdRp Activity [% of Mock at 10 µM]: 10 µM compound, remaining activity relative to mock; for Reduction of RdRp activity compared to mock controls: fixed concentration of 10 µM
[7] = biological target: FCV protease (recombinant FCV Pro-Pol) (Feline calicivirus, UniProt Q66914); assay: Protease FRET activity assay; assay type: biochemical, Feline calicivirus (FCV Urbana); conditions: for Inhibitory effect against FCV protease (in words): FRET assay, up to 50 µM
in vitro = conditions: cat, Cell Viability CC50
[8] = test system: Crandell Rees Feline Kidney (CRFK) cells
FCV [9] = test system: FCV; set-up: method as in ref 29, 30 = [29]; conditions: cell-based assays; read-out: EC50 against FCV; cited from earlier work
FCV [10] = test system: FCV; set-up: method as in ref 26 = [26]; conditions: read-out: EC50 against FCV in vitro; cited from earlier work
adenovirus = test system: adenovirus; set-up: method as in ref 54, 63 = [54]; conditions: cell culture; cited from earlier work
canine coronavirus = test system: canine coronavirus; set-up: method as in ref 54, 63 = [54]; conditions: cell culture; cited from earlier work
[11] = in vivo; cited from earlier work
murine norovirus [12] = test system: murine norovirus; set-up: method as in ref 64 = [64]; conditions: cited from earlier work
rotavirus = test system: rotavirus; set-up: method as in ref 54, 63 = [54]; conditions: cell culture; cited from earlier work
GI norovirus replicon = test system: GI norovirus replicon; set-up: method as in ref 64 = [64]; conditions: cleared the replicon from the host cells; cited from earlier work
chikungunya replicon = test system: chikungunya replicon; set-up: method as in ref 75 = [75]; conditions: cited from earlier work
HCV infectious virus = conditions: read-out: EC50 infectious HCV in cell cultures; cited from earlier work
[13] = test system: human norovirus protease (genogroup I and II); set-up: method as in ref 29, 52 = [29]; conditions: FRET-based assays; cited from earlier work
[14] = in vivo; cited from earlier work; remark: listed apart in the source
FCV [15] = test system: FCV; set-up: method as in ref 25 = [25]; conditions: in vitro assays; cited from earlier work
human norovirus RdRp = test system: human norovirus RdRp; set-up: method as in ref 59 = [59]; conditions: cited from earlier work
murine norovirus RdRp = test system: murine norovirus RdRp; set-up: method as in ref 59 = [59]; conditions: cited from earlier work
[16] = Crandell Rees Feline Kidney (CRFK) cells, Cell Viability CC50, CRFK cells, 48 h, CellTitre-Blue
[17] = Feline calicivirus, CRFK, 24 h, read-out: Plaque Reduction Assay EC50, FCV in CRFK cells, 24 h
[18] = read-out: Plaque Reduction Assay EC50, FCV in CRFK cells, 24 h
[19] = FRET, 50 µM substrate, read-out: In vitro Protease IC50
[20] = Feline calicivirus, CRFK, 24 h, read-out: Inhibition of plaque formation
[21] = Feline calicivirus, CRFK, 24 h, read-out: Plaque Reduction Assay EC50

Chain of FCV RdRp (recombinant FCV Pro-Pol) (Q66914 1072-1763): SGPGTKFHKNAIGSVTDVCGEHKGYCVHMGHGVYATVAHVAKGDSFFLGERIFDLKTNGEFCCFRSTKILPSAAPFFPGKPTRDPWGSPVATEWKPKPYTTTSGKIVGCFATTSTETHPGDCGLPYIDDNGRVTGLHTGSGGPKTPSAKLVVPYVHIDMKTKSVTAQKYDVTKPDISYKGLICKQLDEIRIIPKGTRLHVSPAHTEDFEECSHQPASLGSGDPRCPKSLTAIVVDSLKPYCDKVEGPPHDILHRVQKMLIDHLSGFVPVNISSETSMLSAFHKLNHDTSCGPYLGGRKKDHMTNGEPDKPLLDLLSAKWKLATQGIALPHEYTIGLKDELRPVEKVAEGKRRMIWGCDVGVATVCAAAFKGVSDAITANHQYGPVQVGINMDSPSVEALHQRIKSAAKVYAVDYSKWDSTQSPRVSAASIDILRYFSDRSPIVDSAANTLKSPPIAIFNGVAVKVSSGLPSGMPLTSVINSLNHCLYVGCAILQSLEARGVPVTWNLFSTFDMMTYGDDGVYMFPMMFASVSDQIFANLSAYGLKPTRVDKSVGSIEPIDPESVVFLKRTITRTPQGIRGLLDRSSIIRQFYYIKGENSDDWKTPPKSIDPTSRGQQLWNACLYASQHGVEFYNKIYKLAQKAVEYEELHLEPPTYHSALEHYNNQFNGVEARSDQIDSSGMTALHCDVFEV
Chain of FCV protease (recombinant FCV Pro-Pol) (Q66914 1072-1763): as above

C[C@@]1(O)[C@H](O)[C@@H](CO)O[C@H]1n1ccc(N)nc1=O [2CMC, 2′-C-methylcytidine]
EC50 (human norovirus replicon): ~18 µM
CC50 at 48 h [1, 16]: > 100 µM
EC50 [2]: 8.2 µM
EC50 (murine norovirus [3]): ~2 µM
Reduction of FCV RNA levels compared to mock-treated cells ([4]; 10 µM): 95%
Therapeutic index (TI = CC50/EC50) (FCV strain F-9): > 40
EC50 (FCV strain F-9; [17]): 2.5 µM
EC50 (FCV strain F-9; [18]): 2.6 µM
EC50 (human norovirus): 0.3 µM

COc1ccc2c(c1)[C@@H]1C[C@]1(C(=O)N1[C@@H]3CC[C@H]1CN(C)C3)Cn1c-2c(C2CCCCC2)c2ccc(C(=O)NS(=O)(=O)N(C)C)cc21 [Beclabuvir]
CC50 at 48 h [1, 16]: < 30 µM
CC50 [5]: 27.5 µM
RdRp Activity [% of Mock at 10 µM] [6]: 92.2%
Reduction of RdRp activity compared to mock controls [6]: ≤ 10%

CC(C)C[C@H](NC(=O)[C@@H](NC(=O)N[C@@H](Cc1ccccc1)C(=O)O)[C@@H]1CCN=C(N)N1)C(=O)N[C@H](C=O)Cc1ccccc1 [Chymostatin, chymostatin]
Inhibitory effect against FCV protease (in words) [7]: no inhibitory effect
IC50 [7, 19]: > 50 µM

CC(=O)OCC(CCn1cnc2cnc(N)nc21)COC(C)=O [Famciclovir]
CC50 at 48 h (in vitro): > 100 µM
EC50 (FCV strain F-9; [17]): > 50 µM
inhibition at 50 µM (FCV strain F-9; Feline calicivirus, CRFK, read-out: Inhibition of plaque formation): 10%
Antiviral effect against FCV in cell culture (in words) (FCV strain F-9): no antiviral effect observed

CC(C)C[C@H](NC(=O)OCc1ccccc1)C(=O)N[C@@H](CC1CCNC1=O)C(O)S(=O)(=O)O (some centres unmarked) [GC376]
EC50 (FCV strain F-9; [18]): > 10 µM
CC50 [8]: > 100 µM
EC50 (FCV [9]): 35 µM and 35.2 µM
IC50 [7, 19]: 18 µM and 18.7 µM

CC(C)C[C@H](NC(=O)OCc1ccccc1)C(=O)N[C@@H](C[C@@H]1CCNC1=O)C(O)S(=O)(=O)[O-].[Na+] (some centres unmarked) [GC376]
Antiviral effect against FCV in cell culture (in words) (FCV strain F-9): did not display antivirals effects
Inhibition of FCV protease ([7]; 50 µM): 75%

O=C(O)c1ccc2c(c1)nc(-c1ccc(OCc3cc(N4CCCC4=O)ccc3-c3ccc(Cl)cc3)cc1F)n2C1CCCCC1 [JTK-109]
RdRp Activity [% of Mock at 10 µM] [6]: 89.8%
Reduction of RdRp activity compared to mock controls [6]: ≤ 10%

OC(c1cc(C(F)(F)F)nc2c(C(F)(F)F)cccc12)C1CCCCN1 (centres unmarked) [Mefloquine]
EC50 (FCV [10]): 6.03 µM

CC(C)C[C@H](NC(=O)[C@H](Cc1cccc2ccccc12)NC(=O)OCc1ccccc1)C(=O)N[C@H](C=O)C[C@@H]1CCNC1=O [NPI52]
EC50 (FCV [9]): 0.02 µM

CC(=O)Oc1ccccc1C(=O)Nc1ncc([N+](=O)[O-])s1 [Nitazoxanide, nitazoxanide]
EC50 adenovirus replication (adenovirus): 0.2 mg/L (≈ 0.651 µM)
CC50 at 48 h [1, 16]: 12.7 µM
EC50 canine coronavirus replication (canine coronavirus): 1 mg/L (≈ 3.25 µM)
Side-effects observed in cats [11]: diarrhea and vomiting
Activity against murine norovirus (in words) (murine norovirus [12]): ineffective
Reduction of FCV RNA levels compared to mock-treated cells ([4]; 2.5 µM): 80%
EC50 rotavirus replication (rotavirus): 0.5 mg/L (≈ 1.63 µM)
IC50 [6]: > 10 µM
Therapeutic index (TI = CC50/EC50) (FCV strain F-9): 21.1
EC50 (FCV strain F-9; [17]): 0.5 µM
EC50 (FCV strain F-9; Feline calicivirus, CRFK, read-out: Plaque reduction EC50, FCV in CRFK cells, same value given in µg/mL): 0.2 µg/mL
EC50 (FCV strain F-9; [18]): 0.6 µM
Concentration reported to inhibit GI norovirus replicon replication (GI norovirus replicon): 5 µg/mL
IC50 [7]: > 10 µM

Cc1nc(N=Nc2cc(S(=O)(=O)O)c3cc([N+](=O)[O-])cc(S(=O)(=O)O)c3c2)c(COP(=O)(O)O)c(C=O)c1O [PPNDS]
CC50 [5]: > 100 µM
RdRp Activity [% of Mock at 10 µM] [6]: 7.4%
Reduction of RdRp activity compared to mock controls [6]: 92.6%
IC50 ([6]; read-out: RdRp Activity IC50, dose-response 0.1-100 µM): 2.7 µM
Inhibition of plaque formation (FCV strain F-9; 10 µM, 24 h): < 10%
Antiviral effect against FCV in cell culture (in words) (FCV strain F-9): did not display antivirals effects
EC50 (FCV strain F-9; [18]): > 10 µM

O=c1c(O)c(-c2ccc(O)c(O)c2)oc2cc(O)c(O)c(O)c12 [Quercetagetin, quercetagetin]
IC50 (chikungunya replicon): 43.5 µM
EC50 (HCV infectious virus): 40.2 µM
IC50 [6]: 2.8 µM
RdRp Activity [% of Mock at 10 µM] [6]: 11.7%
Reduction of RdRp activity compared to mock controls [6]: 88.3%
inhibition at 10 µM (FCV strain F-9; [20]): < 10%
EC50 (FCV strain F-9; [21]): > 10 µM
Antiviral effect against FCV in cell culture (in words) (FCV strain F-9): did not display antivirals effects; also recorded: did not inhibit FCV plaque formation

CCOC(=O)/C=C/[C@H](C[C@@H]1CCNC1=O)NC(=O)[C@@H](CC(=O)[C@@H](NC(=O)c1cc(C)on1)C(C)C)Cc1ccc(F)cc1 [Rupintrivir, rupintrivir]
CC50 at 48 h [1, 16]: > 100 µM
IC50 [13]: < 1 µM
EC50 (FCV [9]): > 50 µM
IC50 [7]: > 50 µM
Inhibitory effect against FCV protease (in words) [7]: no inhibitory effect

CC(C)OC(=O)[C@H](C)N[P@](=O)(OC[C@H]1O[C@@H](n2ccc(=O)[nH]c2=O)[C@](C)(F)[C@@H]1O)Oc1ccccc1 [Sofosbuvir]
CC50 at 48 h [1]: > 100 µM
inhibition at 10 µM (FCV strain F-9; [20]): < 10%
EC50 (FCV strain F-9; [21]): > 10 µM

NC(=O)c1nc(F)c[nH]c1=O [T-705, Favipiravir]
CC50 at 48 h [1, 16]: > 100 µM
inhibition at 10 µM (FCV strain F-9; [20]): < 10%
EC50 (FCV strain F-9; [17]): > 10 µM

COc1ccc2c(c1)C=C1Cn3c-2c(C2CCCCC2)c2ccc(cc23)C(=O)NS(=O)(=O)N(C)CCOCCN(C)C1=O [TMC-647055]
CC50 at 48 h [1, 16]: < 30 µM
CC50 [5]: 27.1 µM
RdRp Activity [% of Mock at 10 µM] [6]: 93.5%
Reduction of RdRp activity compared to mock controls [6]: ≤ 10%

CC(C)[C@H](N)C(=O)O[C@@H]1[C@@H](CO)O[C@@H](n2ccc(N)nc2=O)[C@]1(C)O [Valopicitabine]
Adverse events [14]: dose-related gastrointestinal adverse events

COC(=O)/C=C/c1cccc(N(Cc2ccc(-c3ccc(N(C)C)cc3)cc2)C(=O)C2CCCCC2)c1 [fexaramine]
Blocking of FCV entry (in words) (FCV [15]): effective at blocking FCV entry

C[C@@]1(O)[C@H](O)[C@@H](COP(=O)(O)OP(=O)(O)OP(=O)(O)O)O[C@H]1n1ccc(N)nc1=O [tri-phosphorylated 2CMC]
IC50 (human norovirus RdRp): 2.4 µM
IC50 (murine norovirus RdRp): 1.4 µM
